Data: patent US20250263459A1, “STABILIZED PACAP PEPTIDE” (SENJU PHARMACEUTICAL CO., LTD., priority 2019, published 2025)
Starred links: 1 amine or outer side, 2 acyl side, 3 side chain; linkers in the order of their positions; H or OH if unused. Non-standard residues stand in square brackets, D forms with d. Residues, ends and D or L forms follow the SMILES beside them. *: point of attachment. Ala(1H-tetrazol-5-yl) = N[C@@H](Cc1nnn[nH]1)C(=O)O; X1 = O=C([C@@H](Cc1nnn[nH]1)N[*:1])[*:2]; Nle = CCCC[C@H](N)C(=O)O; Propionyl = CCC(=O)*

Legend:
[1] = 100 μM peptide, Tris buffer pH 7.0, 60° C.
Procedure: The solution was filtered with a Chromatdisk (product of Merck Millipore, Millex-GV, 0.22 μm). The filtrate was diluted to 100 μM with Tris buffer (pH 7.0) and dispensed into a tube (Protein LoBind Tube by Eppendorf Co.). The prepared peptide solutions were incubated for 1 week or 2 weeks in a 60° C. thermostatic bath to obtain stored samples. A simultaneously prepared sample among the peptide solutions that was not stored was used as a standard sample (initial sample). The standard sample and the stored samples were stored at −30° C. until sample analysis.
• Column: XSelect CSH C18 by Waters Co., 5 μm, 4.6×250 mm • Guard column: XSelect CSH C18 by Waters Co., 5 μm, 4.6×20 mm Guard Cartridge • Detection wavelength: 220 nm • Mobile phase A: 0.1% formic acid aqueous solution • Mobile phase B: 0.1% acetonitrile formate solution • Measuring time: 20 minutes • Measuring sample injection rate: 50 μL • Flow rate: 1.0 mL/min • Column temperature: 40° C. • Sample cooler: 25° C. • Mobile phase delivery: The mixing ratio of mobile phase A and mobile phase B was varied as shown in Table 14 for linear concentration gradient control.

[2] = Stability test 1: survival rate of peptide in phosphate buffer (pH 7.0) after storage, HPLC; assay type: physicochemical; conditions: 100 μM peptide, phosphate buffer pH 7.0, 40° C.; for survival rate after correction for water, 40° C. 2 week: 2 weeks (Table 6); for survival rate after correction for water, 40° C. 8 week: 8 weeks (Table 6)
Procedure: The 1.0 mM peptide solutions were then diluted with phosphate buffer to 100 μM. […] The prepared peptide solutions were incubated for one month or 2 months in a 40° C. thermostatic bath to obtain stored samples.
Using the total weight of the aqueous peptide solution and storage vessel as the specimen weight, measurements were recorded as the specimen weights before storage and the specimen weights after storage under different storage conditions. The empty weight of the storage vessel was also measured, and the moisture permeability was determined by the following formula.
After stirring the standard sample and the stored samples with a vortex mixer, each peptide solution was transferred to an HPLC vial (Deactivated Qsert vial by Waters Co.). Reverse-phase HPLC (HPLC system: Prominence by Shimadzu Corp.) was conducted under the conditions shown in Table 3 below for analysis of the peptide solutions, and chromatograms were obtained.
The peak area value for the peptide in the chromatogram was calculated, and the survival rate (survival rate before correction for water) was calculated using formula (2). The survival rate after correction for water was also calculated from the survival rate before correction for water using formula (3) to take into account the permeability of the container.
Peptide solutions prepared by the same method as [Measuring sample preparation 1] for the peptides synthesized in Example 2 (peptides 13 to 16) were incubated for 2 weeks and 8 weeks in a thermostatic bath at 40° C. to obtain stored samples.
Peptide solutions prepared by the same method as [Measuring sample preparation 1] for the peptides synthesized in Example 2 (peptides 17 to 21) were incubated for 4 weeks in a thermostatic bath at 40° C. to obtain stored samples.
A peptide solution prepared by the same method as [Measuring sample preparation 1] for peptide 22 synthesized in Example 2 was incubated for 1 week and 4 weeks in a thermostatic bath at 40° C. to obtain stored samples.

| Compound | survival rate after correction for water, 60° C. 1 week preservation [1] | survival rate after correction for water, 60° C. 2 weeks preservation [1] | survival rate after correction for water, 40° C. 2 week [2] | survival rate after correction for water, 40° C. 8 week [2] | survival rate after correction for water, 40° C. 4 week ([2]; 4 weeks (Table 8)) |
| --- | --- | --- | --- | --- | --- |
| HSTzGIFTTzSYSRYRKQLAVKKYLAAVL [Reference Example 4] | 91.7% | 84.8% |  |  |  |
| HSTzGIFTTzSYSRYRKQLAVKKYLAAVL [Reference Example 6] (HSXGIFTXSYSRYRKQLAVKKYLAAVL; N-acetyl; C-terminal amide; Tz residues; modified PACAP peptide; MOD_RES (1)..(1) …ON; MUTAGEN (3)..(3) Xaa is amino acid wherein carboxy group of asparatic acid is substituted with tetrazole; MUTAGEN (8)..(8) Xaa is amino acid wherein carboxy group of asparatic acid is substituted with tetrazole) | 98.4% | 92.8% |  |  |  |
| HSTzGIFTTzSYSRYRKQNIAVKKYLAAVL [Reference Example 5] (HSXGIFTXSYSRYRKQXAVKKYLAAVL; N-acetyl; C-terminal amide; Tz residues; modified PACAP peptide; MOD_RES (1)..(1) …ON; MUTAGEN (3)..(3) Xaa is amino acid wherein carboxy group of asparatic acid is substituted with tetrazole; MUTAGEN (8)..(8) Xaa is amino acid wherein carboxy group of asparatic acid is substituted with tetrazole; MUTAGEN (17)..(17) Xaa is Nle) | 98.1% | 92.9% |  |  |  |
| CCCC[C@H](NC(=O)[C@H](CCC(N)=O)NC(=O)[C@H](CCCCN)NC(=O)[C@H](CCCNC(=N)N)NC(=O)[C@H](Cc1ccc(O)cc1)NC(=O)[C@H](CCCNC(=N)N)NC(=O)[C@H](CO)NC(=O)[C@H](Cc1ccc(O)cc1)NC(=O)[C@H](CO)NC(=O)[C@@H](Cc1nnn[nH]1)NC(=O)[C@@H](NC(=O)[C@H](Cc1ccccc1)NC(=O)[C@@H](NC(=O)CNC(=O)[C@@H](Cc1nnn[nH]1)NC(=O)[C@H](CO)NC(=O)[C@@H](N)Cc1c[nH]cn1)[C@@H](C)CC)[C@@H](C)O)C(=O)N[C@@H](C)C(=O)N[C@H](C(=O)N[C@@H](CCCCN)C(=O)N[C@@H](CCCCN)C(=O)N[C@@H](Cc1ccc(O)cc1)C(=O)N[C@@H](CC(C)C)C(=O)N[C@@H](C)C(=O)N[C@@H](C)C(=O)N[C@H](C(=O)N[C@@H](CC(C)C)C(N)=O)C(C)C)C(C)C [Peptide 13, HSTz(D)GI FTTz(D)SY SRYRK QNIAVK KYLAA VL] (H-HS[X1]GIFT[X1]SYSRYRKQ[Nle]AVKKYLAAVL-NH2) |  |  | 96.2% | 84.6% |  |
| CCCC[C@H](NC(=O)[C@H](CCC(N)=O)NC(=O)[C@H](CCCCN)NC(=O)[C@H](CCCNC(=N)N)NC(=O)[C@H](Cc1ccc(O)cc1)NC(=O)[C@H](CCCNC(=N)N)NC(=O)[C@H](CO)NC(=O)[C@H](Cc1ccc(O)cc1)NC(=O)[C@H](CO)NC(=O)[C@H](Cc1nnn[nH]1)NC(=O)[C@@H](NC(=O)[C@H](Cc1ccccc1)NC(=O)[C@@H](NC(=O)CNC(=O)[C@H](Cc1nnn[nH]1)NC(=O)[C@H](CO)NC(=O)[C@H](Cc1c[nH]cn1)NC(=O)CC)[C@@H](C)CC)[C@@H](C)O)C(=O)N[C@@H](C)C(=O)N[C@H](C(=O)N[C@@H](CCCCN)C(=O)N[C@@H](CCCCN)C(=O)N[C@@H](Cc1ccc(O)cc1)C(=O)N[C@@H](CC(C)C)C(=O)N[C@@H](C)C(=O)N[C@@H](C)C(=O)N[C@H](C(=O)N[C@@H](CC(C)C)C(N)=O)C(C)C)C(C)C [Peptide 17, HSTzGI FTTzSY SRYRK QNIAVK KYLAA VL] (Propionyl-HS[Ala(1H-tetrazol-5-yl)]GIFT[Ala(1H-tetrazol-5-yl)]SYSRYRKQ[Nle]AVKKYLAAVL-NH2) |  |  |  |  | 59.2% |
| CCCC[C@H](NC(=O)[C@H](CCC(N)=O)NC(=O)[C@H](CCCCN)NC(=O)[C@H](CCCNC(=N)N)NC(=O)[C@H](Cc1ccc(O)cc1)NC(=O)[C@H](CCCNC(=N)N)NC(=O)[C@H](CO)NC(=O)[C@H](Cc1ccc(O)cc1)NC(=O)[C@H](CO)NC(=O)[C@H](Cc1nnn[nH]1)NC(=O)[C@@H](NC(=O)[C@H](Cc1ccccc1)NC(=O)[C@@H](NC(=O)CNC(=O)[C@@H](Cc1nnn[nH]1)NC(=O)[C@H](CO)NC(=O)[C@@H](N)Cc1c[nH]cn1)[C@@H](C)CC)[C@@H](C)O)C(=O)N[C@@H](C)C(=O)N[C@H](C(=O)N[C@@H](CCCCN)C(=O)N[C@@H](CCCCN)C(=O)N[C@@H](Cc1ccc(O)cc1)C(=O)N[C@@H](CC(C)C)C(=O)N[C@@H](C)C(=O)N[C@@H](C)C(=O)N[C@H](C(=O)N[C@@H](CC(C)C)C(N)=O)C(C)C)C(C)C [Peptide 15, HSTz(D)GI FTTzSY SRYRK QNIAVK KYLAA VL] (H-HS[X1]GIFT[Ala(1H-tetrazol-5-yl)]SYSRYRKQ[Nle]AVKKYLAAVL-NH2) |  |  | 95.6% | 81.3% |  |
| CCCC[C@H](NC(=O)[C@H](CCC(N)=O)NC(=O)[C@H](CCCCN)NC(=O)[C@H](CCCNC(=N)N)NC(=O)[C@H](Cc1ccc(O)cc1)NC(=O)[C@H](CCCNC(=N)N)NC(=O)[C@H](CO)NC(=O)[C@H](Cc1ccc(O)cc1)NC(=O)[C@H](CO)NC(=O)[C@@H](Cc1nnn[nH]1)NC(=O)[C@@H](NC(=O)[C@H](Cc1ccccc1)NC(=O)[C@@H](NC(=O)CNC(=O)[C@H](Cc1nnn[nH]1)NC(=O)[C@H](CO)NC(=O)[C@@H](N)Cc1c[nH]cn1)[C@@H](C)CC)[C@@H](C)O)C(=O)N[C@@H](C)C(=O)N[C@H](C(=O)N[C@@H](CCCCN)C(=O)N[C@@H](CCCCN)C(=O)N[C@@H](Cc1ccc(O)cc1)C(=O)N[C@@H](CC(C)C)C(=O)N[C@@H](C)C(=O)N[C@@H](C)C(=O)N[C@H](C(=O)N[C@@H](CC(C)C)C(N)=O)C(C)C)C(C)C [Peptide 14, HSTzGI FTTz(D)SY SRYRK QNIAVK KYLAA VL] (H-HS[Ala(1H-tetrazol-5-yl)]GIFT[X1]SYSRYRKQ[Nle]AVKKYLAAVL-NH2) |  |  | 96.3% | 84.5% |  |
| HSTzGIFTTzSYSRYRKQNIAVKKYLAAVL [Reference Example 3] | 91.3% | 82.4% |  |  |  |
